In brackets after ≈: the same amount, converted by molar mass.
Legend:
Assay in all cases: Microtitre plate assay, IC90 determination
Type in all cases: cell-based
[1] = tested on: BSU 43639 (Bacillus subtilis (ATCC43639)); details: for IC90: Bacillus subtilis, ATCC43639, Bacillus subtilis (ATCC43639), read-out: IC90 (μg/ml) BSU 43639; for IC90 (μg/ml) BSU 43639: Bacillus subtilis (ATCC43639)
[2] = tested on: PAE 27853 (Pseudomonas aeruginosa (ATCC27853)); details: for IC90 (μg/ml) PAE 27853: Pseudomonas aeruginosa (ATCC27853); for IC90: Pseudomonas aeruginosa, ATCC27853, Pseudomonas aeruginosa (ATCC27853), read-out: IC90 (μg/ml) PAE 27853
[3] = tested on: EFA 29212 (Enterococcus faecalis (ATCC29212)); details: for IC90 (μg/ml) EFA 29212: Enterococcus faecalis (ATCC29212); for IC90: Enterococcus faecalis, ATCC29212, Enterococcus faecalis (ATCC29212), read-out: IC90 (μg/ml) EFA 29212
[4] = tested on: SPY 8668 (Streptococcus pyogens (ATCC8668)); details: for IC90 (μg/ml) SPY 8668: Streptococcus pyogens (ATCC8668); for IC90: Streptococcus, ATCC8668, Streptococcus pyogens (ATCC8668), read-out: IC90 (μg/ml) SPY 8668
[5] = tested on: LMO 49594 (Listeria monocytogenes (ATCC49594)); details: for IC90: Listeria monocytogenes, ATCC49594, Listeria monocytogenes (ATCC49594), read-out: IC90 (μg/ml) LMO 49594; for IC90 (μg/ml) LMO 49594: Listeria monocytogenes (ATCC49594)
[6] = tested on: STA 25923 (Staphylococcus aureus (ATCC25923)); details: for IC90: Staphylococcus aureus, ATCC25923, Staphylococcus aureus (ATCC25923), read-out: IC90 (μg/ml) STA 25923; for IC90 (μg/ml) STA 25923: Staphylococcus aureus (ATCC25923)
[7] = tested on: SPN 6305 (Streptococcus pneumoniae (ATCC6305)); details: for IC90 (μg/ml) SPN 6305: Streptococcus pneumoniae (ATCC6305)
Method in brief: (§1)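 Growth-inhibition endpoint: resazurin added 3 h after inoculation, plates incubated overnight, fluorescence at 530/590 nm after 24 h at 37 °C. Inocula of roughly 10–60 CFU per well in Mueller-Hinton medium; compounds titrated five-fold. IC90 reported as μg/ml.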

[8] = tested on: STA 29213 (Staphylococcus aureus (ATCC29213)); details: for IC90: Staphylococcus aureus, ATCC29213, Staphylococcus aureus (ATCC29213), read-out: IC90 (μg/ml) STA 29213; for IC90 (μg/ml) STA 29213: Staphylococcus aureus (ATCC29213)
Method in brief: as §1

[9] = tested on: STA RMETH (methicilline resistant Staphylococcus aureus (MRSA), a clinical isolate from the University of Antwerp); details: for IC90: Staphylococcus aureus, MRSA, read-out: IC90 (μg/ml) STA RMETH

COc1ccc2cc(C(O)(CCCCN(C)C)C(c3ccccc3)c3cc4c(Br)cccc4nc3OC)ccc2c1 (stereo not drawn) [Compound 27]
IC90 [1]: 48.7 µg/mL (≈ 79.4 µM) | IC90 (μg/ml) PAE 27853 [2]: 9.7 µg/mL (≈ 15.8 µM) | IC90 (μg/ml) EFA 29212 [3]: 61.4 µg/mL (≈ 100 µM) | IC90 (μg/ml) SPY 8668 [4]: 48.7 µg/mL (≈ 79.4 µM) | IC90 [5]: 61.4 µg/mL (≈ 100 µM) | IC90 [6]: 61.4 µg/mL (≈ 100 µM) | IC90 (μg/ml) SPN 6305 [7]: 61.4 µg/mL (≈ 100 µM) | IC90 [8]: 1.9 µg/mL (≈ 3.1 µM) | IC90 (μg/ml) STA RMETH [9]: 61.4 µg/mL (≈ 100 µM)

COc1ccc2cc(C(O)(CCCCN(C)C)C(c3ccccc3)c3cc4ccc(Br)cc4nc3OC)ccc2c1 (stereo not drawn) [Compound 31]
IC90 [1]: 9.7 µg/mL (≈ 15.8 µM) | IC90 [2]: 1.9 µg/mL (≈ 3.1 µM) | IC90 [3]: 10.9 µg/mL (≈ 17.8 µM) | IC90 [4]: 4.3 µg/mL (≈ 7.01 µM) | IC90 [5]: 4.3 µg/mL (≈ 7.01 µM) | IC90 [6]: 12.2 µg/mL (≈ 19.9 µM) | IC90 (μg/ml) SPN 6305 [7]: 9.7 µg/mL (≈ 15.8 µM) | IC90 (μg/ml) STA 29213 [8]: 1.9 µg/mL (≈ 3.1 µM) | IC90 [9]: 4.3 µg/mL (≈ 7.01 µM)

COc1nc2ccc(Br)cc2cc1C(c1ccccc1)C(O)(CCCN(C)C)c1ccccc1 (stereo not drawn) [Compound 44]
IC90 [1]: 41.3 µg/mL (≈ 79.5 µM) | IC90 (μg/ml) PAE 27853 [2]: 10.4 µg/mL (≈ 20 µM) | IC90 [3]: 26 µg/mL (≈ 50 µM) | IC90 (μg/ml) SPY 8668 [4]: 9.2 µg/mL (≈ 17.7 µM) | IC90 (μg/ml) LMO 49594 [5]: 13.1 µg/mL (≈ 25.2 µM) | IC90 (μg/ml) STA 25923 [6]: 13.1 µg/mL (≈ 25.2 µM) | IC90 (μg/ml) SPN 6305 [7]: 11.6 µg/mL (≈ 22.3 µM) | IC90 (μg/ml) STA 29213 [8]: 10.4 µg/mL (≈ 20 µM) | IC90 (μg/ml) STA RMETH [9]: 13.1 µg/mL (≈ 25.2 µM)

COc1nc2ccc(Br)cc2cc1C(c1ccccc1)C(O)(CCCN(C)C)c1ccccc1 (stereo not drawn) [Compound 45]
IC90 (μg/ml) BSU 43639 [1]: 52.0 µg/mL (≈ 100 µM) | IC90 (μg/ml) PAE 27853 [2]: 52.0 µg/mL (≈ 100 µM) | IC90 (μg/ml) EFA 29212 [3]: 52.0 µg/mL (≈ 100 µM) | IC90 (μg/ml) SPY 8668 [4]: 52.0 µg/mL (≈ 100 µM) | IC90 (μg/ml) LMO 49594 [5]: 41.3 µg/mL (≈ 79.5 µM) | IC90 (μg/ml) STA 25923 [6]: 41.3 µg/mL (≈ 79.5 µM) | IC90 (μg/ml) SPN 6305 [7]: 52.0 µg/mL (≈ 100 µM) | IC90 (μg/ml) STA 29213 [8]: 41.3 µg/mL (≈ 79.5 µM) | IC90 (μg/ml) STA RMETH [9]: 41.3 µg/mL (≈ 79.5 µM)

COc1nc2ccc(Br)cc2cc1C(c1ccccc1)C(O)(CCCN(C)C)c1ccc2ccccc2c1 (stereo not drawn) [Compound 46]
IC90 (μg/ml) BSU 43639 [1]: 57.0 µg/mL (≈ 100 µM) | IC90 [2]: 12.8 µg/mL (≈ 22.5 µM) | IC90 [3]: 50.8 µg/mL (≈ 89.2 µM) | IC90 (μg/ml) SPY 8668 [4]: 50.8 µg/mL (≈ 89.2 µM) | IC90 (μg/ml) LMO 49594 [5]: 45.2 µg/mL (≈ 79.4 µM) | IC90 (μg/ml) STA 25923 [6]: 50.8 µg/mL (≈ 89.2 µM) | IC90 (μg/ml) SPN 6305 [7]: 57.0 µg/mL (≈ 100 µM) | IC90 [8]: 57 µg/mL (≈ 100 µM) | IC90 (μg/ml) STA RMETH [9]: 50.8 µg/mL (≈ 89.2 µM)

COc1nc2ccc(Br)cc2cc1C(c1ccccc1)C(O)(CCCN(C)C)c1ccc2ccccc2c1 (stereo not drawn) [Compound 47]
IC90 (μg/ml) BSU 43639 [1]: 11.4 µg/mL (≈ 20 µM) | IC90 (μg/ml) PAE 27853 [2]: 10.1 µg/mL (≈ 17.7 µM) | IC90 (μg/ml) EFA 29212 [3]: 25.4 µg/mL (≈ 44.6 µM) | IC90 (μg/ml) SPY 8668 [4]: 11.4 µg/mL (≈ 20 µM) | IC90 (μg/ml) LMO 49594 [5]: 2.3 µg/mL (≈ 4.04 µM) | IC90 (μg/ml) STA 25923 [6]: 12.8 µg/mL (≈ 22.5 µM) | IC90 (μg/ml) SPN 6305 [7]: 5.1 µg/mL (≈ 8.95 µM) | IC90 (μg/ml) STA 29213 [8]: 57.0 µg/mL (≈ 100 µM) | IC90 (μg/ml) STA RMETH [9]: 12.8 µg/mL (≈ 22.5 µM)

COc1nc2ccc(Br)cc2cc1C(c1ccccc1)C(O)(CCCN(C)C)c1cccc2ccccc12 (stereo not drawn) [Compound 50]
IC90 [1]: 14.3 µg/mL (≈ 25.1 µM) | IC90 [2]: 11.4 µg/mL (≈ 20 µM) | IC90 [3]: 57 µg/mL (≈ 100 µM) | IC90 [4]: 11.4 µg/mL (≈ 20 µM) | IC90 [5]: 14.3 µg/mL (≈ 25.1 µM) | IC90 [6]: 14.3 µg/mL (≈ 25.1 µM) | IC90 ([7]; Streptococcus pneumoniae, ATCC6305, Streptococcus pneumoniae (ATCC6305), read-out: IC90 (μg/ml) SPN 6305): 14.3 µg/mL (≈ 25.1 µM) | IC90 [8]: 45.2 µg/mL (≈ 79.4 µM) | IC90 [9]: 14.3 µg/mL (≈ 25.1 µM)

CCN(CC)CCCC(O)(c1ccc2ccccc2c1)C(c1ccccc1)c1cc2cc(Br)ccc2nc1OC (stereo not drawn) [Compound 51]
IC90 [1]: 15 µg/mL (≈ 25.1 µM) | IC90 (μg/ml) PAE 27853 [2]: 47.5 µg/mL (≈ 79.5 µM) | IC90 [3]: 59.8 µg/mL (≈ 100 µM) | IC90 [4]: 13.4 µg/mL (≈ 22.4 µM) | IC90 [5]: 15 µg/mL (≈ 25.1 µM) | IC90 [6]: 15 µg/mL (≈ 25.1 µM) | IC90 (μg/ml) SPN 6305 [7]: 11.9 µg/mL (≈ 19.9 µM) | IC90 (μg/ml) STA 29213 [8]: 59.8 µg/mL (≈ 100 µM) | IC90 [9]: 15 µg/mL (≈ 25.1 µM)
